Measurements taken from article PMC4224607 (Chemical communications (Cambridge, England), 2014).

Assay: COPAS bead-based screening, background binding of the dye to library beads
Conditions: TR-labeled lysine and TR-labeled hCAII

O=S(=O)([O-])c1cc(S(=O)(=O)Cl)ccc1C1=c2cc3c4c(c2Oc2c1cc1c5c2CCCN5CCC1)CCC[N+]=4CCC3 [TR]
composition of positive peptides: positively charged amino acids: reduced abundance of positively charged amino acids
